Measurements published in publication PMC10674894 (Viruses, 2023).

Key:
[1] = test system: Vero cells; assay: Cytotoxicity MTT assay in Vero cells (MNTD, CC50); assay type: cell-based, African green monkey
[2] = test system: CHIKV DRDE-07; assay: In vitro screening against CHIKV (CPE inhibition and MTT cell viability); assay type: cell-based, chikungunya virus; settings: for % Cell viability / CPE: Table S1, CHIKV-infected Vero cells; for % Cell viability: MTT assay; for CPE: arbitrary score of cytopathic effect at >48 hpi

Compound | MNTD ([1]; Table S1, Vero cells) | % Cell viability ([2]; 72 hpi) | CPE [2] | MNTD ([1]; maximum nontoxic dose in Vero cells, MTT) | Cell Viability ([2]; CHIKV-infected Vero cells treated at MNTD, 72 hpi, MTT, cell control + DMSO = 100%)
COc1ccc(C2C3=C(CC(C)(C)CC3=O)OC3=C2C(=O)CC(C)(C)C3)cc1 [DCR128, 9‐(4‐methoxyphenyl)‐3,3,6,6‐tetramethyl‐2,3,4,5,6,7,8,9‐octahydro‐1H‐xanthene‐1,8‐dione] | 125 µM | 11.01% | ++++ (>60% (++++)) |  | 
C#CCOC(=O)C1=C(C)NC(=O)NC1c1ccc(Cl)cc1 (stereo not drawn) [DCR88, prop-2-yn-1-yl 4-(4-chlorophenyl)-6-methyl-2-oxo-1,2,3,4-tetrahydropyrimidine-5-carboxylate] | 205.1 µM | 11.05% | ++++ (>60% (++++)) |  | 
O=C1NC(c2cccc(Cl)c2)c2c(ccc3ccccc23)O1 (stereo not drawn) [DCR68, 1-(3-chlorophenyl)-1H,2H,3H-naphtho[1,2-e][1,3]oxazin-3-one] | 53.27 µM | 10.84% | ++++ (>60% (++++)) |  | 
CCOc1ccc(C2NC(=O)NC(C)=C2C(=O)OCC[N+](C)(C)C)cc1 (stereo not drawn) [DCR75, {2-[4-(4-ethoxyphenyl)-6-methyl-2-oxo-1,2,3,4-tetrahydropyrimidine-5-carbonyloxy]ethyl}trimethylazanium] | 31.25 µM | 10.21% | ++++ (>60% (++++)) |  | 
COc1ccc(C2NC(=O)NC(C)=C2C(=O)OCCc2ccccc2)cc1 (stereo not drawn) [DCR97, 2-phenylethyl 4-(4-methoxyphenyl)-6-methyl-2-oxo-1,2,3,4-tetrahydropyrimidine-5-carboxylate] | 170.57 µM | 11.19% | ++++ (>60% (++++)) |  | 
O=C(c1cccnc1)n1nc(-c2ccc(O)cc2)cc1-c1ccc(Cl)cc1Cl [DCR54, 4-[5-(2,4-dichlorophenyl)-1-(pyridine-3-carbonyl)-1H-pyrazol-3-yl]phenol] | 15.62 µM | 8.73% | ++++ (>60% (++++)) |  | 
C/C(=N\NC(=O)c1cccnc1)c1ccc(O)cc1 [DCR45, (E)-N'-(1-(4-hydroxyphenyl)ethylidene)nicotinohydrazide] | 31.25 µM | 15.55% | ++++ (>60% (++++)) |  | 
CC(=O)Cc1noc(-c2cccc([N+](=O)[O-])c2)n1 [DCR81, 1-[5-(3-nitrophenyl)-1,2,4-oxadiazol-3-yl]propan-2-one] | 125 µM | 0% | ++++ (>60% (++++)) |  | 
COc1cc(-c2cc(-c3ccc(O)cc3)nn2C(=O)c2cccnc2)cc(OC)c1OC [DCR60, 4-[1-(pyridine-3-carbonyl)-5-(3,4,5-trimethoxyphenyl)-1H-pyrazol-3-yl]phenol] | 31.25 µM | -3.41% | ++++ (>60% (++++)) |  | 
Brc1cc2c(c3ncccc13)Oc1cc(Br)c3cccnc3c1O2 [DCR 2, 5,12-dibromo-[1,4]dioxino[2,3-h:5,6-h’]diquinoline] | 50 µM |  | ++ (50-30% (++)) | 50 µM | 63%
COc1cc(/C=N/NC(=O)c2ccncc2)cc(OC)c1OC [DCR42, (E)-N'-(3,4,5-trimethoxybenzylidene)isonicotinohydrazide] | 31.25 µM | 12.22% | ++++ (>60% (++++)) |  | 
O=C(NNC(=O)c1cccnc1)c1ccccc1 [DCR4, N'-benzoylnicotinohydrazide] | 31.25 µM | 15% | ++++ (>60% (++++)) |  | 
C#CCOC(=O)C1=C(C)NC(=O)NC1c1ccc([N+](=O)[O-])cc1 (stereo not drawn) [DCR93, prop-2-yn-1-yl 6-methyl-4-(4-nitrophenyl)-2-oxo-1,2,3,4-tetrahydropyrimidine-5-carboxylate] |  | 12.17% | ++++ (>60% (++++)) |  | 
CCOc1ccc(-c2cc(-c3ccc(O)cc3)nn2C(=O)c2cccnc2)cc1OC [DCR58, 4-[5-(4-ethoxy-3-methoxyphenyl)-1-(pyridine-3-carbonyl)-1H-pyrazol-3-yl]phenol] | 15.62 µM | 8.17% | ++++ (>60% (++++)) |  | 
CC(=O)Cc1noc(-c2ccc([N+](=O)[O-])cc2)n1 [DCR77, 1-[5-(4-nitrophenyl)-1,2,4-oxadiazol-3-yl]propan-2-one] | 125 µM | 10.43% | ++++ (>60% (++++)) |  | 
O=C(N/N=C/c1cccc([N+](=O)[O-])c1)c1cccnc1 [DCR19, (E)-N'-(3-nitrobenzylidene)nicotinohydrazide] | 62.5 µM | 20.39% | ++++ (>60% (++++)) |  | 
CC1CN(c2ccc(C#N)c(Cl)c2)CC(C)N1 (stereo not drawn) [DCR148, 2-Chloro-4-(3,5-dimethyl-piperazin-1-yl)-benzonitrile] | 125 µM | 14.42% | ++++ (>60% (++++)) |  | 
C#CCOC(=O)C1=C(C)NC(=O)NC1c1cccc(F)c1 (stereo not drawn) [DCR95, prop-2-yn-1-yl 4-(3-fluorophenyl)-6-methyl-2-oxo-1,2,3,4-tetrahydropyrimidine-5-carboxylate] | 433.62 µM | 11.54% | ++++ (>60% (++++)) |  | 
O=C(N/N=C/c1ccccc1[N+](=O)[O-])c1ccncc1 [DCR35, (E)-N'-(2-nitrobenzylidene)isonicotinohydrazide] | 62.5 µM | 9.84% | ++++ (>60% (++++)) |  | 
O=C(c1cccnc1)n1nc(-c2ccc(O)cc2)cc1-c1ccccc1 [DCR55, 4-[5-phenyl-1-(pyridine-3-carbonyl)-1H-pyrazol-3-yl]phenol] | 31.25 µM | 17.69% | ++++ (>60% (++++)) |  | 
CC1=C(C(=O)OCC[N+](C)(C)C)C(c2ccc([N+](=O)[O-])cc2)NC(=O)N1 (stereo not drawn) [DCR104, N,N,N-trimethyl-2-({[6-methyl-4-(4-nitrophenyl)-2-oxo-1,2,3,4-tetrahydropyrimidin-5-yl]carbonyl}oxy)ethanaminium] | 125 µM | 9.09% | ++++ (>60% (++++)) |  | 
Cc1ccc(-c2cc(-c3ccc(O)cc3)nn2C(=O)c2cccnc2)cc1 [DCR57, 4-[5-(4-methylphenyl)-1-(pyridine-3-carbonyl)-1H-pyrazol-3-yl]phenol] | 31.25 µM | 24.84% | ++++ (>60% (++++)) |  | 
COc1cccc(C2C3=C(CC(C)(C)CC3=O)OC3=C2C(=O)CC(C)(C)C3)c1 [DCR125, 9‐(3‐methoxyphenyl)‐3,3,6,6‐tetramethyl‐2,3,4,5,6,7,8,9‐octahydro‐1H‐xanthene‐1,8‐dione] | 125 µM | 11.19% | ++++ (>60% (++++)) |  | 
COc1ccc(C2NC(=O)NC(C)=C2C(=O)OCCN(C)C)cc1 (stereo not drawn) [DCR112, 2-(dimethylamino)ethyl 4-(4-methoxyphenyl)-6-methyl-2-oxo-1,2,3,4-tetrahydropyrimidine-5-carboxylate] | 62.5 µM | 2.09% | ++++ (>60% (++++)) |  | 
CCOc1cc(-c2cc(-c3ccc(O)cc3)nn2C(=O)c2cccnc2)ccc1O [DCR59, 2-ethoxy-4-[3-(4-hydroxyphenyl)-1-(pyridine-3-carbonyl)-1H-pyrazol-5-yl]phenol] | 15.62 µM | 49.1% | +++ (60-50% (+++)) |  | 
